PubChem BioAssay (NCI)
Values joined by “and” are separate entries in the source; they are usually repeats but may differ in a detail not shown here. Equal entries are not always repeated.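 Step 1: Grow cells in 96-well plates. Step 2: Expose to compound for 48 hours at 5 concentrations. Step 3: Interpolate endpoints linearly; if unreached, use highest concentration. GI50 is the concentration that inhibits growth by half. TGI: concentration producing complete growth inhibition.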

Assays:
Experiment in all cases: NCI tumour cell line growth inhibition, 48 h
TK-10 renal = test system: TK-10 renal
OVCAR-4 ovarian = test system: OVCAR-4 ovarian
UACC-257 melanoma = test system: UACC-257 melanoma
CAKI-1 renal = test system: CAKI-1 renal
MCF7 breast = test system: MCF7 breast
SF-295 CNS = test system: SF-295 CNS
NCI/ADR-RES ovarian = test system: NCI/ADR-RES ovarian
HT29 colon = test system: HT29 colon
IGROV1 ovarian = test system: IGROV1 ovarian
RPMI-8226 leukemia = test system: RPMI-8226 leukemia

Row | Structure (SMILES) | GI50 (TK-10 renal) | TGI (TK-10 renal) | GI50 (OVCAR-4 ovarian) | TGI (OVCAR-4 ovarian) | GI50 (UACC-257 melanoma) | TGI (UACC-257 melanoma) | GI50 (CAKI-1 renal) | TGI (CAKI-1 renal) | GI50 (MCF7 breast) | TGI (MCF7 breast) | GI50 (SF-295 CNS) | TGI (SF-295 CNS) | GI50 (NCI/ADR-RES ovarian) | TGI (NCI/ADR-RES ovarian) | GI50 (HT29 colon) | TGI (HT29 colon) | GI50 (IGROV1 ovarian) | TGI (IGROV1 ovarian) | GI50 (RPMI-8226 leukemia) | TGI (RPMI-8226 leukemia)
1 | CC(NCCC(c1ccccc1)c1ccccc1)c1ccccc1 (stereo unspecified) | 1.93 µM | 4 µM | 2.15 µM | 6.66 µM | 1.65 µM | 4.02 µM | 2.73 µM | 9.52 µM | 1.8 µM | 3.63 µM | 1.73 µM | 3.86 µM | 2.77 µM | 7.68 µM | 1.72 µM | 3.39 µM | 2.89 µM | 13.5 µM | 1.92 µM | 4.83 µM
2 | C[C@@H]1C[C@@H]([C@@H](CC2CC(=O)NC(=O)C2)OC(=O)CC(=O)c2ccccc2)C(=O)[C@@H](C)C1 | 0.306 µM | > 24.3 µM | 1.91 µM | > 100 µM | 0.358 µM | 13 µM | 0.252 µM | – | 0.645 µM | > 100 µM | 0.224 µM | 12.3 µM | 0.689 µM | > 100 µM | 0.634 µM | > 100 µM | 0.62 µM | – | 4.03 µM | > 100 µM
3 | CCN1CCN(c2cc(C)c3cc(NC(=O)c4ccc(OC)c(OC)c4)ccc3n2)CC1 | > 59 µM | 98.5 µM | 11 µM | > 100 µM | > 40.4 µM | > 58.9 µM | > 44.6 µM | > 100 µM | 0.572 µM | > 100 µM | 11.8 µM | 38.5 µM | > 49.1 µM | > 100 µM | 1.31 µM | > 100 µM | > 66.3 µM | > 100 µM | 2.68 µM | 29.4 µM
4 | N=c1c2c(-c3ccccc3)c(-c3ccccc3)n(Cc3ccccc3)c2ncn1C1CCC(O)CC1 (stereo unspecified) | 0.814 µM | 8.96 µM | 1.43 µM | 13.1 µM | 0.469 µM | 1.91 µM | 0.147 µM | 1.89 µM | 0.278 µM | 2.36 µM | 0.0836 µM | 1.45 µM | 0.717 µM | 18.4 µM | 0.0772 µM | 2.49 µM | 0.0902 µM | 4.49 µM | 0.318 µM | 4.12 µM
5 | CNCCOC(=O)/C=C1\CC[C@H]2[C@@H]([C@@H](O)C(=O)[C@@H]3[C@]2(C)CC[C@H](O)[C@]3(C)C(=O)OC)[C@H]1C | 0.262 µM | 0.76 µM | 0.222 µM | 0.484 µM | 0.479 µM | 1.73 µM | 0.315 µM | 1.08 µM | 0.368 µM | 1.7 µM | 0.301 µM | 0.951 µM | 0.22 µM | 0.444 µM | 0.443 µM | 1.58 µM | 0.438 µM | 2.23 µM | 0.454 µM | 2.65 µM
6 | NNC(=O)CNc1cccc(Br)c1 | – | > 100 µM | – | > 100 µM | – | > 100 µM | – | > 100 µM | – | > 100 µM | – | > 100 µM | – | > 100 µM | – | > 100 µM | – | > 100 µM | – | > 100 µM
7 | CCN(CC)CCNc1nc(N)c(C#N)c(C#N)c1C#N | – | > 10 µM | – | > 10 µM | – | > 10 µM | – | > 10 µM | – | > 10 µM | – | > 10 µM | – | > 10 µM | – | > 10 µM | – | > 10 µM | – | > 10 µM
8 | CCOC(=O)Nc1cc2c(c(N)n1)N=C(c1ccccc1)CO2 | 0.704 µM | 19.3 µM | 2.46 µM | 36.4 µM | 17.5 µM | 99.6 µM | 0.102 µM | 7.62 µM | 0.1 µM | 21 µM | 0.224 µM | 14.2 µM | 0.061 µM | 21.5 µM | 0.047 µM | 10.9 µM | 0.148 µM | 11.9 µM | 0.126 µM | –
9 | Cc1nc(N)sc1N=Nc1ccccc1Br | – | 70.4 µM | – | > 61.9 µM | – | 55.8 µM | – | 81.8 µM | – | 70.2 µM | – | 97.7 µM | – | 72.5 µM | – | 59 µM | – | 64.4 µM | – | > 100 µM
10 | CC(=O)ON1CCCC(P(=O)(OCCSC(=O)C(C)(C)C)OCCSC(=O)C(C)(C)C)C1=O (stereo unspecified) | 3.57 µM | 93.3 µM | 1.58 µM | 26.4 µM | 6.9 µM | 81.1 µM | 2.44 µM | > 100 µM | 2.01 µM | 47.5 µM | 12.7 µM | > 100 µM | 1.35 µM | 12.4 µM | 1.28 µM | > 100 µM | 0.808 µM | 6.27 µM | 1.45 µM | 11.3 µM
11 | COC(=O)[C@]12CC[C@@H](C)[C@H](C)[C@@H]1C1=CC[C@@H]3[C@@]4(C)C[C@@H](O)[C@H](O)[C@@](C)(CO)C4=CC[C@@]3(C)[C@]1(C)CC2 | 19.4 µM | 34.5 µM | 15.9 µM | 32.8 µM | 20.1 µM | 35.5 µM | 15.6 µM | 29.8 µM | 14.2 µM | 31.2 µM | 16.7 µM | 33.1 µM | 16.6 µM | 33.9 µM | 15.9 µM | 33.5 µM | 22 µM | 43.1 µM | 13.9 µM | 34.6 µM
12 | NC1CCN(Cc2ccccc2)CC1 | > 100 µM | > 100 µM | > 100 µM | > 100 µM | > 100 µM | > 100 µM | > 100 µM | > 100 µM | > 100 µM | > 100 µM | > 100 µM | > 100 µM | > 100 µM | > 100 µM | > 100 µM | > 100 µM | 94.6 µM | > 100 µM | > 100 µM | > 100 µM
13 | Cc1nc(Nc2cccnc2)sc1C(=O)/C=C/c1ccc(F)cc1 | 2.98 µM | > 100 µM | 4.29 µM | > 100 µM | 5.87 µM | 28.6 µM | 3.39 µM | 13.6 µM | 2.29 µM | > 100 µM | 3.09 µM | 18.2 µM | 3.24 µM | > 100 µM | 2.76 µM | 10.1 µM | 2.85 µM | > 100 µM | 2.69 µM | 15.2 µM
14 | CCCC(=O)Nc1cn(COC)c(C(=O)N2C[C@@H]3C[C@]34C2=CC(=O)c2[nH]cc(C)c24)n1 | 3 µM | 19.1 µM and 6.18 µM | 4.66 µM | 18.2 µM and 14.3 µM | 13.3 µM | 23.5 µM and 27.7 µM | 4.65 µM | 12.1 µM and 16.2 µM | – | 50 µM and 11.6 µM | 3.68 µM | 50 µM and 15.8 µM | 14.9 µM | 20.7 µM and 28.9 µM | 11.2 µM | 21.1 µM and 37.7 µM | 1.27 µM | 29.5 µM and 10.8 µM | 1.87 µM | 41.5 µM and 6.75 µM
15 | N#Cc1nn(-c2cc(=O)[nH]c3ccc(Cl)cc23)c(N)c1C#N | > 100 µM | > 100 µM | 8.63 µM | > 100 µM | > 100 µM | > 100 µM | > 100 µM | > 100 µM | 82.3 µM | > 100 µM | > 100 µM | > 100 µM | > 100 µM | > 100 µM | > 100 µM | > 100 µM | > 100 µM | > 100 µM | > 100 µM | > 100 µM
16 | Cc1c(N(C)C)ccc2c(=O)c3cccc(CC(=O)O)c3oc12 | – | > 100 µM | – | > 100 µM | – | > 100 µM | – | > 100 µM | – | > 100 µM | – | > 100 µM | – | > 100 µM | – | > 100 µM | – | > 100 µM | – | > 100 µM
17 | O=C(/C=C/c1ccc[nH]1)c1ccc(-n2ccc(C(F)(F)F)n2)cc1 | > 100 µM | > 100 µM | 99.1 µM | > 100 µM | > 100 µM | > 100 µM | > 31.6 µM | > 100 µM | > 82.2 µM | > 100 µM | > 25.8 µM | > 100 µM | > 100 µM | > 100 µM | > 100 µM | > 100 µM | > 100 µM | > 100 µM | 0.436 µM | 8.15 µM
